For data set [1], the system named is cellular histone deacetylase activity in Jurkat E6-1 cells. In words: Inhibition of cellular HDAC activity, Boc-Lys(Tfa)-AMC substrate. Format: cell-based. Particulars: Homo sapiens, Class IIa selective substrate. An excerpt: The potency of exemplifying compounds described herein is quantified by measuring the cellular histone deacetylase enzymatic activity using the Class IIa selective substrate, Boc-Lys(Tfa)-AMC. After penetration in Jurkat E6-1 cells, the substrate is deacetylated to Boc-Lys-AMC. After cell lysis and cleavage by trypsin, the fluorophore AMC is released from the deacetylated substrate only. The fluoresence of the sample is directly related to the histone deacetylase activity in the sample.
Jurkat E6.1 Cell Culture and Plating. Jurkat E6.1 cells are cultured according to standard cell culture protocols in Jurkat E6.1 Growth Media (RPMI without phenol red, 10% FBS, 10 mM HEPES, and 1 mM Sodium Pyruvate). Jurkat E6.1 cells are counted using a Coulter Counter and resuspended in Jurkat E6.1 growth media at a concentration of 75,000 cells/35 μL. 35 μL or 75,000 cells is seeded into Greiner microtitre assay plates. The plates are then incubated at 37° C. and 5% CO2 while other assay components are being prepared.
Serially Dilute HDAC Inhibitor Compounds. […]
Assay. […] Finally the top read fluorescence (Excitation: 355 nm, Emission: 460 nm) is measured using PerkinElmer EnVision.

A further data set deals with Boc-Lys(Ac). In words: Boc-Lys(Ac) IC50. Format: cell-based.
The nature of data set [2]: Hepatic microsomal stability, mouse. Format: in vitro ADME. Particulars: mouse liver microsomes. Background: Microsomes from liver hold many membrane-bound enzymes, among them those of drug oxidation.
Data set [3] has as its target T1, HDAC4 (Homo sapiens, UniProt P56524). Nature of the data set: HDAC4 (cell) IC50. Format: cell-based. The note with it: Table 3.
Data set [4] is described as follows: PK study (iv and po 10 mg/kg), plasma, brain and muscle. Format: in vivo. The note with it: for clearance: read-out: Clearance (CLp) (converted); for Vd: read-out: Volume of Distribution at Steady State (Vdss).
Data set [5] is described as follows: MDCK apparent permeability (Papp A>B). Format: in vitro ADME. The note with it: dog, pH 7.4.
For data set [6], the target named is T1, HDAC4. Nature of the data set: HDAC4 (bioch) IC50. Format: biochemical. The note with it: Table 3; read-out: IC50 μM (bioch).
The mark [7] stands for this setting: 5 mg eq./Kg, IV PK, brain, read-out: Brain-plasma.
The mark [8] stands for this setting: 5 mg eq./Kg, IV PK, muscle section, read-out: Brain-plasma.
Setting [9] is: 10 mg/Kg, Oral PK, brain, read-out: Brain-plasma.
[10] abbreviates: 10 mg/Kg, Oral PK, muscle, read-out: Muscle-plasma.

Structures are written as SMILES. Like-named read-outs stand apart in the source and are kept apart here.

T1 sequence (P56524 whole entry): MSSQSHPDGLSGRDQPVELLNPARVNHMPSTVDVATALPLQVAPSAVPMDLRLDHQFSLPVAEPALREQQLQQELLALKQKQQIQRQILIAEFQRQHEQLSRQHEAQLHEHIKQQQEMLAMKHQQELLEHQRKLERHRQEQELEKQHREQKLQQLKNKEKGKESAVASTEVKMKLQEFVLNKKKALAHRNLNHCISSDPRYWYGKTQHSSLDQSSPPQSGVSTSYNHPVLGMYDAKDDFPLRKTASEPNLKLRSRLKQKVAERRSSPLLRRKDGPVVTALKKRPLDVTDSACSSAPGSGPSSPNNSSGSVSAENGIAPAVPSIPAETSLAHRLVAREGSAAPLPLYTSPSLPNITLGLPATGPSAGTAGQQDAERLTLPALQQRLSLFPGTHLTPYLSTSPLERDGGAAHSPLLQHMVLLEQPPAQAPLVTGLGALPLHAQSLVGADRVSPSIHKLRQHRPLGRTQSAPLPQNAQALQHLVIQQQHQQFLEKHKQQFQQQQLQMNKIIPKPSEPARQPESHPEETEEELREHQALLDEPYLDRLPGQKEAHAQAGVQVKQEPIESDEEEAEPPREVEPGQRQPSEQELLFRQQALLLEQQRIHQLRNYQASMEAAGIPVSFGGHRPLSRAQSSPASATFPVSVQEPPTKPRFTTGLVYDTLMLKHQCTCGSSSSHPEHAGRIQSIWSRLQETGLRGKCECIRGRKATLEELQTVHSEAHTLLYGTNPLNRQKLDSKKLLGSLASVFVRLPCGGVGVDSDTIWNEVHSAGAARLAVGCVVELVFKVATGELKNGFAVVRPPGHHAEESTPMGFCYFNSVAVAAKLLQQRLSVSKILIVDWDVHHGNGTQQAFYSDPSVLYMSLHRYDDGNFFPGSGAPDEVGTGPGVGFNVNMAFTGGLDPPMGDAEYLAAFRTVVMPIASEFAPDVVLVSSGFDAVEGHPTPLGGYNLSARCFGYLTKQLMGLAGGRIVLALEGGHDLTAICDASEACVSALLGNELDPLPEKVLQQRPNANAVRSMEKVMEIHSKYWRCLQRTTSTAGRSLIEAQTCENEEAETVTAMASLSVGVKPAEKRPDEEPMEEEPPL

The term IC50 denotes the concentration that gives 50% inhibition. Turning to `Cc1ncc(-c2ccc(C(C(=O)NO)c3ccccc3F)cc2)cn1` (stereo not shown) [Compound 6, 2-(2-fluorophenyl)-N-hydroxy-2-(4-(2-methylpyrimidin-5-yl)phenyl)acetamide], the IC50 was 120 nM in data set [1] and more than 50000 nM in the data set on Boc-Lys(Ac).
Take `O=C(NO)C(c1ccc(-c2ncc(C(F)(F)F)cn2)cc1)c1ccccc1F` (stereo not shown) [Compound 8, 2-(2-fluorophenyl)-N-hydroxy-2-(4-(5-(trifluoromethyl)pyrimidin-2-yl)phenyl)acetamide]: the values for the IC50 (in data set [1]; in the data set with Boc-Lys(Ac)) were 59 nM and more than 50000 nM, respectively.
As usually defined, the half-life is how long it takes for the measured level to halve. The low end stands for rapid decline, the high end for slow decline. In general, Papp A→B refers to the apparent permeability from the apical to the basolateral side of a cell layer. In data set [2], `O=C(NO)C(c1ccc(N2CCOCC2)cc1)c1ccccc1F` (stereo not shown) returned an MLM of 93 mL/min/kg BW. Also, the IC50 on HDAC4 [3] turned out to be 0.64 µM; at HDAC4 [6] it was 0.07 µM. The half-life in data set [4] (5 mg eq./Kg, IV PK, brain) is 3.3 h; in data set [4] (5 mg eq./Kg, IV PK, muscle), 4.8 h; in data set [4] (5 mg eq./Kg, IV PK, plasma) it was 1.8 h. Further, the Kp in data set [4] (setting [7]) was in the range of 0.54 to 8.9; in data set [4] (setting [8]) it was 1.9 to 21; in data set [4] (setting [9]), 0.67 to 3.4; in data set [4] (setting [10]), 1.5 to 5.2. The clearance in data set [4] (5 mg eq./Kg, IV PK, plasma) is 123 mL/min/kg. The Vd in data set [4] (5 mg eq./Kg, IV PK, plasma) was 3.1 L/kg. In addition, the AUCnorm was found to be 511 nM·kg·h/mg in data set [4] (IV PK, brain); 1048 nM·kg·h/mg in data set [4] (IV PK, muscle); 409 nM·kg·h/mg in data set [4] (IV PK, plasma); 151 nM·kg·h/mg in data set [4] (Oral PK, brain); 260 nM·kg·h/mg in data set [4] (Oral PK, muscle); 109 nM·kg·h/mg in data set [4] (Oral PK, plasma). The Bioavaiability in data set [4] (Oral PK, plasma) worked out at 27%. Also, the “Observed CmaxNorm” value in data set [4] (Oral PK, plasma) stood at 95 nM·kg/mg. Also, the Papp A→B at 1 h, 10 μM in data set [5] worked out at 23.4 ×10⁻⁶ cm/s.
For the molecule `O=C(NO)C(c1ccccc1)c1ccc(-c2cncnc2)cc1` (stereo not shown) [drawing 19], the MLM in data set [2] amounted to 77 mL/min/kg BW. In addition, the figures for the IC50 at HDAC4 [3] and on HDAC4 [6] were 0.55 µM and 0.09 µM, respectively. Also, the half-life in data set [4] (5 mg eq./Kg, IV PK, brain) is 2.2 h; in data set [4] (5 mg eq./Kg, IV PK, muscle), 4 h; in data set [4] (5 mg eq./Kg, IV PK, plasma), 1.8 h; in data set [4] (10 mg/Kg, Oral PK, brain) it was 2.7 h; in data set [4] (10 mg/Kg, Oral PK, muscle) it was 4 h; in data set [4] (10 mg/Kg, Oral PK, plasma), 1.9 h. The Kp in data set [4] (setting [7]) lay in the range of 0.12 to 2; in data set [4] (setting [8]), 1.1 to 8.9; in data set [4] (setting [9]), 0.15 to 1.4; in data set [4] (setting [10]) it was 1 to 8. Further, in data set [4] (5 mg eq./Kg, IV PK, plasma), the clearance was 107 mL/min/kg. In data set [4] (5 mg eq./Kg, IV PK, plasma), the Vd was found to be 2.6 L/kg. The AUCnorm in data set [4] (IV PK, brain) was found to be 162 nM·kg·h/mg; in data set [4] (IV PK, muscle), 835 nM·kg·h/mg; in data set [4] (IV PK, plasma), 516 nM·kg·h/mg; in data set [4] (Oral PK, brain), 58 nM·kg·h/mg; in data set [4] (Oral PK, muscle) it was 306 nM·kg·h/mg; in data set [4] (Oral PK, plasma), 179 nM·kg·h/mg. The same molecule gave a Bioavaiability in data set [4] (Oral PK, plasma) of 35%. For the same molecule, the “Observed CmaxNorm” value in data set [4] (Oral PK, plasma) worked out at 257 nM·kg/mg. Besides, the Papp A→B at 1 h, 10 μM in data set [5] was 17.5 ×10⁻⁶ cm/s.
